Article PMC12067444, “Synthesis and Pharmacological Characterization of Novel Peripheral Cannabinoid-1 Receptor Blockers Based on a Tricyclic Scaffold” (Journal of Medicinal Chemistry, 2025)
“Also recorded” adds a separate entry of the source.

Columns and labels:
CB1R = molecular target: T1, CB1R (Mus musculus, UniProt P47746); assay: [35S]GTPγS binding - CB1R activity, mouse brain membranes; assay type: biochemical; settings: CP-55,940 as reference agonist
T1 construct: crude membranes from mouse brain; from tissue; host or cells: mouse brain cortex (without cerebellum) membranes, C57Bl/6Jhsd mice
T1 sequence (P47746 whole entry): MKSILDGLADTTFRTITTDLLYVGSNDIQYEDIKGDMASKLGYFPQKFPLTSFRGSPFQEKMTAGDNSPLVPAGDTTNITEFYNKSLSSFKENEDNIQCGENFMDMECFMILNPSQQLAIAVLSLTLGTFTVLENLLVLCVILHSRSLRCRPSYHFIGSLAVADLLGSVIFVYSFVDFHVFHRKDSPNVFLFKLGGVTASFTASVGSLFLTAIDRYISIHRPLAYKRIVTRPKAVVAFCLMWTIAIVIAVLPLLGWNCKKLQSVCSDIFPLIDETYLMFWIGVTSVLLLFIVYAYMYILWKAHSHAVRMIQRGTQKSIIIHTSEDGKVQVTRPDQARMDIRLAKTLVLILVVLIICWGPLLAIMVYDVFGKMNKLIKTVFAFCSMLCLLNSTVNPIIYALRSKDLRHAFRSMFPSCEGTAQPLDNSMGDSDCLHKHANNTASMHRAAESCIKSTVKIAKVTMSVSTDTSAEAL
Method: Mouse brains were dissected, and P2 membranes were prepared and resuspended at ∼10 μg protein/μL in 350 μL assay buffer containing 0.14% BSA. Ligand-stimulated [^35S]GTPγS binding was assayed as described in the SI. […]
utilizing [3H] C P -55,940 as the radioligand and crude membranes from humans for CB1 R or CB2 R. T he compounds were tested at various concentrations (eight points with a five-fold serial dilution starting at two m M) , and their ability to displace [3H] CP - 55, 940 was evaluated. Upon completion of the binding assays, the reaction mixture was filtered through GF/C plates, followed by four washes with cold wash buffer. After drying for one hour, 50 μL of Perkin Elmer Microscint 20 cocktail was added to the filter plate wells, and the bound [3H] C P -55,940 radioligand was measured using a β counter. All data points were duplicated, and Ki values were determined from two independent experiments using GraphPad Prism 7.02 analysis software, extracted through nonlinear regression analysis.
Tissue preparation for [ 35 S]GTPγS binding. […]
mM EGTA, 9 mM MgCl 2, and 150 mM NaCl, followed by homogenization. The protein concentration of the suspension was determined using the BCA assay, and the suspen sion was diluted to a final concentration of 2 mg/mL in assay buffer. […]
Supplementary Figure 1. […] The tested compounds were evaluated for their ability to inhibit CB1R-mediate d […]

[1] = Protein binding in mouse brain, equilibrium dialysis; settings: mouse
Method: (§1) Protein binding of test compound in mouse brain using equilibrium dialysis […]
(§2) method. Solution A (0. 5 mM) was prepared by mixing 10 µL of a 10 mM stock solution […]
(§3) with 190 µL of DMSO. Subsequently, Solution B (0.02 mM) was prepared by adding […]
(§4) 8 µL of solution A to 192 µL of 0.05 M sodium phosphate buffer. The final concentration of DMSO in Solution B was 4%.
(§5) A 96-well plate was initially prepared by dispensing 380 µL aliquots of brain […]
(§6) tissue into wells designated for the brain while t h e buffer was added to the remaining […]
(§7) wells to serve as a control. Subsequently, 20 µL of Solution B (containing 0.02 mM of […]
(§8) test and reference compounds) was spiked into the pre-loaded brain samples in the […]
(§9) plate. This step yielded a final test concentration of 1 µM, containing 0.2% DMSO. A duplicate system was establi shed for the dialysis sampl es wherein brain tissu e was prepared against buffer. Initially, 100 µL aliquots of blank dialysis buffer were applied to the receiver side of the dialysis chambers. Subsequently, 100 µL aliquots of the brain […]
(§10) tissue spiked with te st and reference compounds were applied to the donor side of the […]
(§11) T0 brain samples for initial concentrations were prepared in duplicate. A 25µL […]
(§12) aliquot of the brain spiked with test and reference compounds was transferred into a 96- […]
(§13) well sample preparation plate. An equivalent volume of blank buffer was then added […]
(§14) to each well. Af ter the 5-hour incubation period, aliquots of 25 µL wer e taken f r om t h e […]
(§15) dialysis apparatus's donor and receiver sides and transferred into new sample […]
(§16) preparation plates. An equal volume of the opposite matrix (blank buffer to brain and […]
(§17) vice versa) was added to each well, resulting in a final volume of 50 µL in each well.
(§18) The samples (both T0 and f i v e h) were then quenched with 200 µL of acetonitrile […]
(§19) containing internal standard (IS) and vortexed at 600 rpm for 10 minutes. After […]
(§20) vortexing, the samples were centrifuged at 5594 × g for 15 minutes. Subsequently, 50 […]
(§21) µL of the supernatants were transferred to a new 96-well plate and mixed with 50 µL […]
(§22) of Milli- Q water. T he sample plates wer e cover ed and stor ed in a f r eezer ( -20 ℃) until […]
(§23) respectively. For data analysis, the following equations wer e used:
(§24) % Bound = 100 × ([Donor]5h -[ Receiver] 5h) / [Donor] 5h
(§25) % Recovery= 100 × ([Donor]5h +[Receiver] 5h) / [Initial] 0h
(§26) Undiluted Fu (%) = (1/D) / [(1/Fu2-1 ) + 1/ D ]
(§27) Whereas; D: Dilution factor = Dilution factor of brain: 4

mouse brain tissue = assay: as above
Method: as §1, §2, §3, §4, §5, §6, §7, §8, §9, §10, §11, §12, §13, §14, §15, §16, §17, §18, §19, §20, §21, §22, §23, §24, §25, §26, §27

C57BL/6J mice = assay: Assessment of centrally mediated hyperactivity (locomotor activity); assay type: in vivo, mouse
Method: The activity profiles of the mice were evaluated using the Promethion High-Definition Behavioral Phenotyping System (Sable Instruments, Inc., Las Vegas, NV, USA). MetaScreen software version 2.2.18.0 was employed for data acquisition and instrument control, while ExpeData version 1.8.4 was used for processing raw data. An analysis script detailing all aspects of the data transformation was utilized. Mice with unrestricted access to food and water were subjected to a standard 12 h light/12 h dark cycle, comprising a 16-h acclimation period followed by 24 h of sampling. Ambulatory activity and position were concurrently quantified by the number of disruptions of the infrared beams in three dimensions (XYZ) with a beam spacing of 0.25 cm.
This experiment aimed to evaluate the capacity of BNS808 and rimonabant (used as a positive control) to elicit centrally mediated hyperactivity in mice (a known feature of a brain penetrant compound). For this purpose, male wild-type C57BL/6J mice received a single dose of either the vehicle, rimonabant (10 mg/kg, PO), or BNS808 (1 or 10 mg/kg, PO). The locomotor activity was quantified by measuring the disruptions of infrared beams in two dimensions (XY) for 1 h. Each testing session involved evaluating two groups at a time.

Cc1ccc(S(=O)(=O)NC2CCCOc3c2nn(-c2ccccc2Cl)c3-c2ccc(Cl)cc2)cc1 (stereo not shown) [BNS807]
CB1R functional profile in GTPγS assay (CB1R): inverse agonistic profile; also recorded: inverse agonist

O=S(=O)(NC1CCCOc2c1nn(-c1ccccc1Cl)c2-c1ccc(Cl)cc1)c1ccc(Cl)cc1 (stereo not shown) [BNS808, 4-chloro-N-[2-(2-chlorophenyl)-3-(4-chlorophenyl)-5,6,7,8-tetrahydrooxepino[3,2-c]pyrazol-8-yl]benzenesulfonamide]
recovery at 5 h, 1 µM [1]: 81.8%
protein binding in mouse brain (category) (mouse brain tissue; equilibrium dialysis, 1 µM, 5 h): extremely high protein binding and high
Fraction of bound (%) (mouse brain tissue; mouse brain, diluted homogenate, 5 h): 100%
Undiluted Bound (%) (mouse brain tissue; mouse brain, dilution factor 4): 100.0%
CNS-mediated side effects (C57BL/6J mice; 1 mg/kg and 10 mg/kg PO, mice): No CNS-mediated side effects were observed
locomotor activity (centrally mediated hyperactivity) (C57BL/6J mice; single dose 1 or 10 mg/kg PO, male C57Bl/6J mice, 1 h): no significant changes in locomotor activity
